Results taken from patent US20040220268A1, “Compound that directly stimulates phospholipase C activity” (priority 2003, published 2004).

Columns and labels:
Gs-proteins = assay: Cyclic AMP generation (radio receptor assay); format: cell-based; settings: human neutrophils; m-3M3FBS 25 μM, histamine 100 μM
Protocol: (§1) Isolated neutrophils were preincubated with PTX (1 μg/ml) or vehicle for 90 min at 37° C. and stimulated with m-3M3FBS, FMLF, or ATP at concentrations of 25, 1, and 500 μM, respectively. Changes in the excitation ratios at 340 nm/380 nm were monitored. Data are presented as means ±S. E. M. of two independent experiments (A). cAMP levels were determined by a radio receptor assay. Prepared cells were treated with m-3M3FBS (25 μM) or histamine (100 μM) and then lysed with Tris-EDTA. After removing the supernatant, [ 3H] cAMP and protein were added, and the amount of [^3H] cAMP-protein complex was determined. The amount of unlabeled cAMP (in the sample) was then calculated by measuring the protein-bound radioactivity. Data are presented as means ±S. E. M. of two independent experiments (B). […] RGS2-GFP inducible HeLa cells were cultured for 48 h in the absence or in the presence of tetracycline and loaded with fura-2. Cells were treated with histamine (100 μM) or m-3M3FBS (25 μM), and changes in the 340 nm/380 nm ratios were monitored and converted to [Ca^2+]i values. The results shown are representative of three independent experiments (C).

Gq-proteins = assay: [Ca2+]i in RGS2-GFP inducible HeLa cells; format: cell-based, human; settings: histamine 100 μM, m-3M3FBS 25 μM
Protocol: as §1
pRevTRE vector containing the cDNA of rat RGS2-GFP was transfected into Hela Tet-off cells using Lipofectamine. Selection was performed in DMEM supplemented with 2 μg/ml of tetracycline and 500 μg/ml of hygromycin B. Two weeks later, several well-isolated colonies were picked out and analyzed by western blotting to determine the expression level of RGS2 in the absence of tetracycline. For these experiments, HeLa cells were cultured for 48 h in the absence or in the presence of tetracycline.
(§2) Freshly prepared human neutrophils were incubated in serum free RPMI 1640 medium with 3 μM of fura-2/AM at 37° C. for 30 min with continuous stirring. After washing with serum free RPMI 1640 medium, the cells were suspended in serum free RPMI containing 250 μM of sulfinpyrazone to prevent dye leakage. About 2×10^6 cells were suspended in Ca^2+ free Locke's solution (158.4 mM NaCl, 5.6 mM KCl, 1.2 mM MgCl2, 5 mM HEPES pH 7.3, 10 mM glucose, and 0.2 mM EGTA) for each measurement. Changes in the fluorescence ratio were measured at an emission wavelength of 500 nm for dual excitation wavelengths at 340 nm and 380 nm. The calibration of the fluorescence ratio versus [Ca^2+]i was performed as described by Grynkiewicz (Grynkiewicz et al., 1985).

human neutrophils = assay: [Ca2+]i measurement with fura-2 in neutrophils; format: cell-based; settings: for effect on calcium signal induced by m-3M3FBS: pretreatment with 4 μM, m-3M3FBS 25 μM
Protocol: Fura-2-loaded neutrophils were stimulated with m-3M3FBS or o-3M3FBS at 25 μM in extracellular calcium containing 2 mM or extracellular free calcium conditions. The results shown are representative of three independent experiments (A). Prepared neutrophils were loaded with fura-2 and then stimulated with 25 μM of m-3M3FBS in the absence or in the presence of 4 μM of U-73122 or U-73343 (B). Changes in 340 nm/380 nm excitation ratio were monitored, and converted to [Ca^2+]i levels. Data are presented as means ±S. E. M. of three independent experiments.
as §2

[1] = test system: PTX-sensitive Gi-proteins; assay: PTX sensitivity of [Ca2+]i increase in neutrophils; format: cell-based, human; settings: fMLF 1 μM
Protocol: Isolated neutrophils were preincubated with PTX (1 μg/ml) or vehicle for 90 min at 37° C. and stimulated with m-3M3FBS, FMLF, or ATP at concentrations of 25, 1, and 500 μM, respectively. Changes in the excitation ratios at 340 nm/380 nm were monitored. Data are presented as means ±S. E. M. of two independent experiments (A). cAMP levels were determined by a radio receptor assay. Prepared cells were treated with m-3M3FBS (25 μM) or histamine (100 μM) and then lysed with Tris-EDTA. After removing the supernatant, [ 3H] cAMP and protein were added, and the amount of [^3H] cAMP-protein complex was determined. The amount of unlabeled cAMP (in the sample) was then calculated by measuring the protein-bound radioactivity. Data are presented as means ±S. E. M. of two independent experiments (B). RGS2-GFP inducible HeLa cells were cultured for 48 h in the absence or in the presence of tetracycline, and the induction of RGS2-GFP was confirmed by Western blot analysis using anti-GFP antibody (C). RGS2-GFP inducible HeLa cells were cultured for 48 h in the absence or in the presence of tetracycline and loaded with fura-2. Cells were treated with histamine (100 μM) or m-3M3FBS (25 μM), and changes in the 340 nm/380 nm ratios were monitored and converted to [Ca^2+]i values. The results shown are representative of three independent experiments (C).
as §2

## NCCc1c[nH]cn1 [histamine, reference compound]
Gs-proteins
  intracellular cAMP level: potently induce cAMP production
Gq-proteins; HeLa cells in the presence of tetracycline (RGS2 not induced)
  [Ca2+]i increase: caused [Ca^2+]i increases
Gq-proteins; HeLa cells overexpressing RGS2
  effect of RGS2 induction on the induced calcium response: completely blocked

## COc1ccc2c(c1)CC[C@@H]1[C@@H]2CC[C@]2(C)[C@@H](NCCCCCCN3C(=O)CCC3=O)CC[C@@H]12 [U-73343, reference compound]
Human neutrophils
  effect on calcium signal induced by m-3M3FBS: no effect

## fMLF
[1]; PTX 1 μg/ml for 90 min, m-3M3FBS 25 μM
  effect of PTX preincubation on the induced calcium increase: inhibited
[1]; neutrophils, without PTX
  [Ca2+]i increase: induced [Ca^2+]i increase

## COc1ccc2c(c1)CC[C@@H]1[C@@H]2CC[C@]2(C)[C@@H](NCCCCCCN3C(=O)C=CC3=O)CC[C@@H]12 [U-73122, reference compound]
Human neutrophils; preincubation in the presence of extracellular calcium, data not shown
  effect on m-3M3FBS-induced calcium signal: completely blocked
Human neutrophils
  effect on calcium signal induced by m-3M3FBS: complete inhibition
